Experimental data: patent US20250186432A1, “SPLEEN TYROSINE KINASE INHIBITOR, COMPOSITION, AND METHODS OF USE” (PURDUE RESEARCH FOUNDATION, priority 2022, published 2025)
Where two headings read alike, the source gives them in different places.

Legend:
[1] = target: HGFR (Homo sapiens, UniProt P08581); test: ADP-Glo kinase inhibition assay, HGFR; type: biochemical; conditions: for IC50: ADP-Glo
[2] = target: EGFR (Homo sapiens, UniProt P00533); test: ADP-Glo kinase inhibition assay, EGFR; type: biochemical; conditions: for IC50: ADP-Glo
[3] = target: VEGFR (Homo sapiens, UniProt P35916); test: ADP-Glo kinase inhibition assay, VEGFR; type: biochemical; conditions: ADP-Glo
[4] = target: FGFR3 (Homo sapiens, UniProt P22607); test: ADP-Glo kinase inhibition assay, FGFR3
[5] = target: IGF1R (Homo sapiens, UniProt P08069); test: ADP-Glo kinase inhibition assay, IGF1R
[6] = target: Syk (Homo sapiens, UniProt P43405); test: ADP-Glo kinase inhibition assay, Syk
[7] = system: Band 3 tyrosine phosphorylation; test: Inhibition of Band 3 tyrosine phosphorylation (cellular potency); type: cell-based, human
[8] = LogP; type: physicochemical
From the text: The compound can have a CLogP value between about 2.0 and about 5.0 (e.g., between 2.0 and about 5.0, about 2.0 and 5.0, or 2.0 and 5.0). In certain embodiments, e.g., compound S1213, the compound has a CLogP value of between about 1.0 and about 2.0 (e.g., between 1.0 and about 2.0, about 1.0 and 2.0, or 1.0 and 2.0). The term “cLogP” refers to a calculated partition coefficient which in the physical sciences, is the ratio of concentrations of a compound in a mixture of the two immiscible phases at equilibrium. These coefficients are a measure of the difference in solubility of the compound in these two phases. In general, this is a measure of hydrophobicity of the compound as one phase is aqueous (traditionally water) and the other is hydrophobic (traditionally octanol). Higher values indicate greater partitioning of the compound into the hydrophobic phase and support increased hydrophobicity.

[9] = Absolute oral bioavailability; conditions: in vivo, read-out: Absolute oral bioavailability F
[10] = system: VEGFR; test: ADP-Glo kinase inhibition assay, VEGFR; type: biochemical; conditions: selectivity ratio
[11] = pTyr, read-out: Inhibition of Band 3 Tyrosine Phosphorylation EC50, pTyr
[12] = Homo sapiens, read-out: Inhibition of Band 3 Tyrosine Phosphorylation EC50, pTyr
[13] = Homo sapiens, read-out: Inhibition of Band 3 Tyrosine Phosphorylation EC50, pTyr8
[14] = Homo sapiens, read-out: Inhibition of Band 3 Tyrosine Phosphorylation EC50, pTyr359

Chain of IGF1R (P08069 31-1367): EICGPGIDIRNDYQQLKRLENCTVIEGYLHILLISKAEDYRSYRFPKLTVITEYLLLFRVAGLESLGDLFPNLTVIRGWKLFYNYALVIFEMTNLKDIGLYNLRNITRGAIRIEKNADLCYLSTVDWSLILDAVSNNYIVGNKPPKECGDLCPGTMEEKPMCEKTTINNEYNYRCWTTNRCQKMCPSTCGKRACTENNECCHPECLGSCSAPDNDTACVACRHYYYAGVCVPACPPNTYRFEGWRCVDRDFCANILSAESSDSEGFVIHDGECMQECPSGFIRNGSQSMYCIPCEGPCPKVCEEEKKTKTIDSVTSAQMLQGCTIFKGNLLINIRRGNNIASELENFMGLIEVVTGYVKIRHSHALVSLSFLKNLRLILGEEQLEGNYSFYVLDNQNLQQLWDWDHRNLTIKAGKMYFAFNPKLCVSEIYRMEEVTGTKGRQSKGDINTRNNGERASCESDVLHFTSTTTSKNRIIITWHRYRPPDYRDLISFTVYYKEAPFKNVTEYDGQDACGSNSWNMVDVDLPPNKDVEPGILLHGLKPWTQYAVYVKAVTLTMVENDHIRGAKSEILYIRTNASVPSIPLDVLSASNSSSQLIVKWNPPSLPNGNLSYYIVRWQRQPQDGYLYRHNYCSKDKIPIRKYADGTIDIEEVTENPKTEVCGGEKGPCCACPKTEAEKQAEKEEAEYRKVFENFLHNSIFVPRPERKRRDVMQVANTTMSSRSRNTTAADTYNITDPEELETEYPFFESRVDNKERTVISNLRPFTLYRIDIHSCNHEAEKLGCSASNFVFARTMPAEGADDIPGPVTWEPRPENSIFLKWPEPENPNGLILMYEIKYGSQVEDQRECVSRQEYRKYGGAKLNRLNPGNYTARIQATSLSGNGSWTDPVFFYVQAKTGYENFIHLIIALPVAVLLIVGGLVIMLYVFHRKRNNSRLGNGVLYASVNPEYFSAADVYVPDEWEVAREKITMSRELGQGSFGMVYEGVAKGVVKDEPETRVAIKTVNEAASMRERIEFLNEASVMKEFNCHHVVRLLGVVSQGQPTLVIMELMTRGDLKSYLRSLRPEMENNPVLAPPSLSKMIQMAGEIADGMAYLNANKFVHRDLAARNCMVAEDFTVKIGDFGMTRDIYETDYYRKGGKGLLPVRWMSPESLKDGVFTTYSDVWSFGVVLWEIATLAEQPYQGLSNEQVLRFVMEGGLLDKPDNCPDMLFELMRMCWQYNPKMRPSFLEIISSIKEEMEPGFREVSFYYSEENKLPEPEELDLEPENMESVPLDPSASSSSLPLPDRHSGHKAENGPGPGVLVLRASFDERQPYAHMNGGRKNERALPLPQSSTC
Chain of VEGFR (Homo sapiens, UniProt P35916) (P35916 whole entry): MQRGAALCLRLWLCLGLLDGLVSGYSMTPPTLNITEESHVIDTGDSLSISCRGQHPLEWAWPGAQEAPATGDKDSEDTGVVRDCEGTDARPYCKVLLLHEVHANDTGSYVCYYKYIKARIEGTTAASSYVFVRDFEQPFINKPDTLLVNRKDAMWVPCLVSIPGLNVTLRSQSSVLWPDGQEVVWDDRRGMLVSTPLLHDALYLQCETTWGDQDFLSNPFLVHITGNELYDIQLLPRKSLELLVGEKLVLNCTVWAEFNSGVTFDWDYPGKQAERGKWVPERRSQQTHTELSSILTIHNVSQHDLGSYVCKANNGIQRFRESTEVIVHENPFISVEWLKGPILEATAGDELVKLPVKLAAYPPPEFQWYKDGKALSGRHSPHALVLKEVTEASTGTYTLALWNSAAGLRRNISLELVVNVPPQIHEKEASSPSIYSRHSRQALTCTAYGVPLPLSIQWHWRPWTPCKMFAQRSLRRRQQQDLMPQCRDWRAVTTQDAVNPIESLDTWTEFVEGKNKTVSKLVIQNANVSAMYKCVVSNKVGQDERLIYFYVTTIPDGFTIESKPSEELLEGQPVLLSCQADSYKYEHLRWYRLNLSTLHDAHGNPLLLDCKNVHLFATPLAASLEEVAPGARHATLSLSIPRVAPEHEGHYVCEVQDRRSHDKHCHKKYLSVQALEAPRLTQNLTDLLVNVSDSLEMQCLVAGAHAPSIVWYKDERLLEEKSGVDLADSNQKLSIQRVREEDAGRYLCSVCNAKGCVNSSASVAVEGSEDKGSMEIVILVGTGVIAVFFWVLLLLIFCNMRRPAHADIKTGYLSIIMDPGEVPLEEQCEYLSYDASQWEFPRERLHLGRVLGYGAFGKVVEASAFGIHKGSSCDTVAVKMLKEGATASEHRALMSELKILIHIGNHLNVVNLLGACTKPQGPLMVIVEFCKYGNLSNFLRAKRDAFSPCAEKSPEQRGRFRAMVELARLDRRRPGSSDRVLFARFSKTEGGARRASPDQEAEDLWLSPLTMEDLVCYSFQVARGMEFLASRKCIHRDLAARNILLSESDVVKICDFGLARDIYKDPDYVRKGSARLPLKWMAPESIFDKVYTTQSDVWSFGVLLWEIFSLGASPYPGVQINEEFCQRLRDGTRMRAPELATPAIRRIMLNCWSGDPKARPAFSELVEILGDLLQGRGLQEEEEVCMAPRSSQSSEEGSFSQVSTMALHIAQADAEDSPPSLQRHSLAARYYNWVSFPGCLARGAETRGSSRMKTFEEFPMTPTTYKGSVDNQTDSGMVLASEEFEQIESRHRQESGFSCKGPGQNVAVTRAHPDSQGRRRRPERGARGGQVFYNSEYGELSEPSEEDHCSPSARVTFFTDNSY
Chain of FGFR3 (P22607 23-806): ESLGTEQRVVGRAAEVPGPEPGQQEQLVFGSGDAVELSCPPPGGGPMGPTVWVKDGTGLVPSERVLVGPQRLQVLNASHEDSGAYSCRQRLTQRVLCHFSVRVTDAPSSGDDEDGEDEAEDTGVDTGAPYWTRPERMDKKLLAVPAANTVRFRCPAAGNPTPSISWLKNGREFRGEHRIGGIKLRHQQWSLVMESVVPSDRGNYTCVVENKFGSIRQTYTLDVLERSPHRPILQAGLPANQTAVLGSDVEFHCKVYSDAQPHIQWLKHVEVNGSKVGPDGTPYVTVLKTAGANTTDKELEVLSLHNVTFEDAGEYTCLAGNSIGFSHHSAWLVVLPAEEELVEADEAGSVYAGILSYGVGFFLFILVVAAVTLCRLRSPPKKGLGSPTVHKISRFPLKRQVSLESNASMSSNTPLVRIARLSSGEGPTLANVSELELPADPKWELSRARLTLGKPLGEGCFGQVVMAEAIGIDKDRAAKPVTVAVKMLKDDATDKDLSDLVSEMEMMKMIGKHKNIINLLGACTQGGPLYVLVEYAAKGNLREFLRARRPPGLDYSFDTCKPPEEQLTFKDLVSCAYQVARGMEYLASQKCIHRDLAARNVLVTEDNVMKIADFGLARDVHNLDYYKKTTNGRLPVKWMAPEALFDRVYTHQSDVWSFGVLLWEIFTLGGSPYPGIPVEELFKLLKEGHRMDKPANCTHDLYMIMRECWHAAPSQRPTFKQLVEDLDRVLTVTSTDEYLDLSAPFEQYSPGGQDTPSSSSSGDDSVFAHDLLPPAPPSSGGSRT
Chain of HGFR (P08581 25-1390): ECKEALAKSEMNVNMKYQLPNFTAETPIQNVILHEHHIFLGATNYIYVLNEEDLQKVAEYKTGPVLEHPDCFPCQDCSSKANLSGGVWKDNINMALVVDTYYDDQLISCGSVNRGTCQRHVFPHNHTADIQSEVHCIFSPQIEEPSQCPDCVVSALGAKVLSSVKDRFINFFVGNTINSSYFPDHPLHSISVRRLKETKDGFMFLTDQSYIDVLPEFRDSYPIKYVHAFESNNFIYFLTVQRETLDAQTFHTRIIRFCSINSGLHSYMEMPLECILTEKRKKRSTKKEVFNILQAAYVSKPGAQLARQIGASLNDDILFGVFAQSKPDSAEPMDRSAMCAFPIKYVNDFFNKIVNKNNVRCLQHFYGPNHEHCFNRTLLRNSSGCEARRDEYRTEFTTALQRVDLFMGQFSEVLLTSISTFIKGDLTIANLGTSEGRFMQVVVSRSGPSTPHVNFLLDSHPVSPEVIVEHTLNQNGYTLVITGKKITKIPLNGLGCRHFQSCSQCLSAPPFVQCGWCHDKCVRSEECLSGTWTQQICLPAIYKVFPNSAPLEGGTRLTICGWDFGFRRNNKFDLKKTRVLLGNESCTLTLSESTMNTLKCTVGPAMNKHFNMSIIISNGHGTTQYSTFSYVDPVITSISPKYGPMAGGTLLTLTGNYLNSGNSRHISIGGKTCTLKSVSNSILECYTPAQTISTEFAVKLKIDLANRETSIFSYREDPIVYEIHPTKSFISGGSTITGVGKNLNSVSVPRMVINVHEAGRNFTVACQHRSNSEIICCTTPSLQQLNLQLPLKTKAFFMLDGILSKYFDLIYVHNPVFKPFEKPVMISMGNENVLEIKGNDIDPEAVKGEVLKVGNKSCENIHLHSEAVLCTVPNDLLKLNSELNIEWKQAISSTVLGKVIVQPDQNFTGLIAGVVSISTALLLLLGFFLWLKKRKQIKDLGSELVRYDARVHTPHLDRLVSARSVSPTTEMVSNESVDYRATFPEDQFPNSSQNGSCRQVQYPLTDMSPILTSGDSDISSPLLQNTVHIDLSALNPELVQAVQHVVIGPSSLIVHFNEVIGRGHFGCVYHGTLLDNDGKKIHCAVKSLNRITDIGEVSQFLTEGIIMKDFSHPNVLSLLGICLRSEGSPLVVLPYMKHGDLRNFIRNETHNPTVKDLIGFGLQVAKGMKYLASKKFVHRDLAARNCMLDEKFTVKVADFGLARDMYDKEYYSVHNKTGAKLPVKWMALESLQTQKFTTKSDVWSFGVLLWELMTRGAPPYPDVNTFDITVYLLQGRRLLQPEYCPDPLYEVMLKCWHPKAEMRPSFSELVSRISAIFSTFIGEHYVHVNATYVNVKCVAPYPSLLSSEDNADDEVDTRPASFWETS

Oc1cc(O)cc(/C=C/c2ccc(O)c(O)c2)c1 [Piceatannal]
IC50 [1]: 35000 nM | IC50 [2]: 17600 nM | IC50 [3]: 5000 nM | IC50 ([4]; read-out: IC50 FGFR3, ADP-Glo): 24700 nM | IC50 ([5]; read-out: IC50 IGF1R, ADP-Glo): 21500 nM

CCc1cc2c(cc1N1CCC(N3CCOCC3)CC1)C(C)(C)c1[nH]c3cc(C#N)ccc3c1C2=O [Alectinib]
IC50 [1]: 1030 nM | IC50 [3]: 335 nM | IC50 [6]: 37100 nM | IC50 [4]: 1810 nM | IC50 [5]: 1010 nM

Cc1cc(Nc2nccc(C)n2)cc(-c2cnc([C@@]3(O)CC[C@H](C(=O)O)C(C)(C)C3)s2)c1 [Syk-IN-3]
IC50 ([6]; read-out: IC50 Syk, ADP-Glo): 1 nM

Cn1cc(-c2cc3c(N4CCN(c5ncc([C@@](C)(N)c6ccc(F)cc6)cn5)CC4)ncnn3c2)cn1 [Avapritinib]
IC50 [1]: 25000 nM | IC50 [2]: 8730 nM | IC50 [3]: 2580 nM | IC50 [6]: 280 nM | IC50 [4]: 1020 nM | IC50 [5]: > 100000 nM

NC(=O)c1nnc(N[C@@H]2CCCC[C@@H]2N)nc1Nc1cccc2cc[nH]c12 [Syk-IN-1]
IC50 ([6]; read-out: IC50 Syk, ADP-Glo): 31 nM

COc1cc(Nc2ncc(F)c(Nc3ccc4c(n3)NC(=O)C(C)(C)O4)n2)cc(OC)c1OC [Compound R406]
EC50 [7, 11]: 5000 nM

COc1ccc(Nc2nc(-c3ccc4c(CN5CC(N)C5)c[nH]c4c3)cnc2C(N)=O)cc1OC [Compound S1213]
IC50 [1]: > 20000 nM | IC50 [2]: 25000 nM | IC50 [3]: > 2000 nM | EC50 [7, 12]: 1500 nM | LogP [8]: 1.04 | bioavailability [9]: 2% | IC50 [6]: 25 nM | IC50 [4]: > 3000 nM | IC50 [5]: > 20000 nM

Nc1cncc(-c2cn3ccnc3c(Nc3ccc(N4CCN(C5COC5)CC4)cc3)n2)n1 [Lanraplenib]
IC50 [1]: > 100000 nM | IC50 [2]: 4270 nM | IC50 [3]: 778 nM | EC50 [7, 12]: 3000 nM | IC50 [4]: 69400 nM | IC50 [5]: 2430 nM

c1cn2cc(-c3ccc4cn[nH]c4c3)nc(Nc3ccc(N4CCOCC4)cc3)c2n1 [Entospletinib]
IC50 [3]: 244 nM | EC50 [7, 11]: 3000 nM | IC50 [4]: 9900 nM | IC50 [5]: 813 nM

CCn1c(=O)c(-c2cc(NC(=O)Nc3ccccc3)c(F)cc2Br)cc2cnc(NC)cc21 [Ripretinib]
IC50 [1]: 3020 nM | IC50 [2]: 9930 nM | IC50 [3]: 0.24 nM | IC50 [6]: 13200 nM | IC50 [4]: 84.4 nM | IC50 [5]: > 100000 nM

COc1cc(Nc2ncc(F)c(Nc3ccc4c(n3)N(COP(=O)(O)O)C(=O)C(C)(C)O4)n2)cc(OC)c1OC [Fostamtinib]
IC50 [1]: 1570 nM | IC50 [2]: 342 nM | IC50 [3]: 18.7 nM | IC50 [4]: 91.4 nM | IC50 [5]: 638 nM

COc1ccc(Nc2nc(-c3ccc4c(CN5CC(O)C5)c[nH]c4c3)cnc2C(N)=O)cc1OC [Compound S1115, 3-((3,4,-methoxyphenyl)amino)-5-(3-((3-hydroxyazetidin-1-yl)methyl)-1H-indol-6-yl)pyrazine-2-carboxamide]
IC50 [1]: > 40000 nM | IC50 [2]: 140 nM | IC50 [3]: 75 nM | EC50 [7, 12]: 226 nM | EC50 [7, 13]: 262 nM | EC50 [7, 14]: 1590 nM | LogP [8]: 1.42 | bioavailability [9]: 2% | IC50 [6]: 2.2 nM | IC50 [5]: 900 nM

NC(=O)c1ncc(-c2ccc3c(CN4CC(N)C4)c[nH]c3c2)nc1Nc1cccc(-n2nccn2)c1 [Compound S1214]
IC50 [6]: 530 nM

CCS(=O)(=O)N1CCN(c2ccc(Nc3ncc(C(N)=O)c(NC4CC4)n3)cc2)CC1 [Cerdulatinib]
IC50 ([6]; read-out: IC50 Syk, ADP-Glo): 32 nM

COc1ccc(Nc2nc(-c3ccc4c(CCCO)cn(C)c4c3)cnc2C(N)=O)cc1OC [Compound S2053]
IC50 [2]: 4300 nM | IC50 [3]: > 10000 nM | LogP [8]: 2.63 | bioavailability [9]: 8% | IC50 [6]: 147 nM | IC50 [4]: > 5000 nM | IC50 [5]: > 10000 nM

COc1ccc(Nc2nc(-c3ccc4c(CCCN)cn(C)c4c3)cnc2C(N)=O)cc1OC [Compound S2054]
IC50 [6]: 680 nM

Cc1nn(-c2ccnc(Nc3ccc(-c4csc5c(=O)cc(N6CCOCC6)oc45)cc3)n2)cc1CN1CCC1 [SRX3207]
IC50 ([6]; read-out: IC50 Syk, ADP-Glo): 10.7 nM

COc1ccc(Nc2nc(-c3ccc4c(CN5CC(O)C5)cn(CO)c4c3)cn3ccnc23)cc1OC [Compound S970D]
IC50 [1]: > 40000 nM | IC50 [2]: 650 nM | IC50 [3]: 2100 nM | EC50 [7, 12]: 716 nM | EC50 [7, 13]: 572 nM | LogP [8]: 2.28 | IC50 [6]: 80 nM | IC50 [5]: > 5000 nM

Cn1cc(-c2nc(N[C@@H]3CCCC[C@@H]3N)c(F)c3c2C(=O)NC3)cn1 [TAK-659]
IC50 [1]: 3160 nM | IC50 [2]: 27600 nM | IC50 [3]: 150 nM | IC50 ([4]; read-out: IC50 FGFR3, ADP-Glo): 19 nM

CN1CCN(c2ccc(C(=O)Nc3n[nH]c4ccc(Cc5cc(F)cc(F)c5)cc34)c(NC3CCOCC3)c2)CC1 [Entrectinib]
IC50 [3]: 441 nM | IC50 [4]: 246 nM

COc1ccc(-c2cc3nccn3c(Nc3ncccc3C(N)=O)n2)cc1OC [Syk IV]
IC50 [3]: 91.2 nM

NCCNc1ncc(C(N)=O)c(Nc2cccc(C(F)(F)F)c2)n1 [Syk II]
IC50 [1]: 69400 nM | IC50 [2]: 27000 nM | IC50 [3]: 4210 nM | IC50 ([6]; read-out: IC50 Syk, ADP-Glo): 70.3 nM | IC50 ([4]; read-out: IC50 FGFR3, ADP-Glo): 36900 nM | IC50 ([5]; read-out: IC50 IGF1R, ADP-Glo): 13500 nM

Cc1cc(Nc2nc(N[C@@H]3CCOC[C@@H]3N)nnc2C(N)=O)cc2cn(C(C)(C)C)nc12 [TAS05567]
IC50 ([6]; read-out: IC50 Syk, ADP-Glo): 0.37 nM

N#CCC1CCN(c2nc(Nc3ccc(N4CCC(O)CC4)cc3)c3c(=O)[nH]ncc3n2)CC1 [Gusacitinib]
IC50 [6]: 5 to 46 nM

COc1ccc(Nc2nc(-c3ccc4c(CN5CC(C(=O)O)C5)c[nH]c4c3)cnc2C(N)=O)cc1OC [Compound S1219]
LogP [8]: 1.54 | bioavailability [9]: 1.1% | IC50 [6]: 50 nM

O=C(Nc1cnn2ccc(N3CCC[C@@H]3c3cc(F)ccc3F)nc12)N1CC[C@H](O)C1 [Larotrectinib]
IC50 [1]: > 100000 nM | IC50 [2]: 6370 nM | IC50 [3]: 19600 nM | IC50 [6]: 23600 nM | IC50 [4]: 1980 nM | IC50 [5]: > 100000 nM

NC(=O)c1cnc(N[C@@H]2CCCC[C@@H]2N)nc1Nc1cccc(-n2nccn2)c1 [PRT062067]
EC50 [7, 11]: 300 nM

Cc1cc(Nc2ncnc3ccc(NC4=NC(C)(C)CO4)cc23)ccc1Oc1ccn2ncnc2c1 [Tucatinib]
IC50 [1]: 11100 nM | IC50 [2]: 38.8 nM | IC50 [3]: 1960 nM | IC50 [6]: 4930 nM | IC50 [4]: 66500 nM | IC50 [5]: > 100000 nM

COc1ccc(Nc2nc(-c3ccc4c(CN5CC(O)C5)c[nH]c4c3)cn3ccnc23)cc1OC [Compound S970, 1-((6-(8-((3,4-dimethoxyphenyl)amino)imidazo[1,2-a]pyrazin-6-yl)-1H-indol-3-yl)methyl)azetidin-3-ol]
Ratio of IC50 SYK/Kinases: HGFR ([1]; selectivity ratio): 220 | IC50 [2]: 8000 nM | Ratio of IC50 SYK/Kinases: EGFR ([2]; selectivity ratio): 44 | IC50 [3]: 4000 nM | Ratio of IC50 SYK/Kinases: VEGFR3 [10]: 22 | EC50 [7, 12]: 1500 nM | EC50 [7, 13]: 4400 nM | EC50 [7, 14]: 10000 nM | LogP [8]: 2.29 | IC50 [6]: 177 nM | Ratio of IC50 SYK/Kinases: SYK ([6]; selectivity ratio): 1 | Ratio of IC50 SYK/Kinases: FGF3R ([4]; selectivity ratio): 55 | Ratio of IC50 SYK/Kinases: IGF1R ([5]; selectivity ratio): 55
